In US20240358692A1, “TREATMENT OF SCLERODERMA” (Aisa Pharma, Inc., priority 2023, published 2024):

Test system: participants with SSc-RP
Assay: Frequency of weekly symptomatic RP attacks (patient diary), Phase 2a Part A
Assay type: in vivo, human
Conditions: ITT Part A
From the text: Percent change from baseline evaluation for frequency of weekly RP attacks were or will be used as the primary efficacy variable. The sponsor-developed participant-informed diary will be used to record data. Frequency of weekly RP attacks is defined as the total number of RP attacks divided by the number of days with available diary data within the last 7 days of each dosing period then multiplied by 7. Total number of RP attacks during the last 7 days of screening period divided by the number of days with available data then multiplied by 7 will be used as baseline for the analysis of all periods. The variable will be calculated as follows: […]
Percent change from baseline evaluation for frequency of weekly RP attacks was and will be the primary efficacy endpoint. Frequency of weekly RP attacks is defined as the total number of RP attacks divided by the number of days with available diary data within the last 7 days of each dosing period then multiplied by 7. Total number of RP attacks during the last 7 days of screening period divided by the number of days with available data then multiplied by 7 will be used as baseline for the analysis of all periods.

[1] = Tadalafil 5 mg, n=1, Excluding Outliers
[2] = Tadalafil 5 mg, n=2, by Baseline RCS, second block (RCS >5.0)
[3] = tadalafil 5 mg daily, n=1, excluding outliers, second Baseline RCS subgroup, last 7 days of dosing

CN1CC(=O)N2[C@H](c3ccc4c(c3)OCO4)c3[nH]c4ccccc4c3C[C@@H]2C1=O [Tadalafil]
Weekly Symptomatic RP Attacks Change from Baseline, Mean [1]: 6.00
Weekly Symptomatic RP Attacks Percent Change from Baseline, Mean [1]: 50.00%
Weekly Symptomatic RP Attacks, Mean [1]: 18.00
Weekly Symptomatic RP Attacks Change from Baseline, Mean [2]: 4.50
Weekly Symptomatic RP Attacks Percent Change from Baseline, Mean [2]: 62.50%
Weekly Symptomatic RP Attacks, Mean [2]: 12.50
Weekly Symptomatic RP Attacks Change from Baseline, Mean [3]: 6.00
Weekly Symptomatic RP Attacks Percent Change from Baseline, Mean [3]: 50.00%
Weekly Symptomatic RP Attacks, Mean [3]: 18.00
